Experimental data: ChEMBL document CHEMBL3603787, “Antiproliferative and tumor inhibitory studies of 2,3 disubstituted 4-thiazolidinone derivatives” (Bioorg Med Chem Lett, 2015)
Active and inactive are the calls of the source. The calls are words filed in the database; no cut-off is given here.

Assays:
[1] = Antiproliferative activity against human NALM6 cells after 48 hrs by MTT assay; type: functional, cell-based; conditions: NALM-6, 48 h
REH [2] = test: Antiproliferative activity against human REH cells after 48 hrs by MTT assay; type: functional, cell-based
REH [3] = test: Cell cycle arrest in human REH cells assessed as accumulation at sub-G1 phase after 48 hrs using propidium iodide staining; type: functional, cell-based
Ehrlich [4] = test: Antitumor activity against mouse EAC cells allografted in mouse assessed as necrosis and innumerable number of apoptotic cells at 25 mg/kg measured up to 14 days; type: functional, organism-based
REH [5] = test: Induction of apoptosis in human REH cells assessed as decrease in mitochondrial membrane potential using green fluorescence of JC-1 dye after 48 hrs; type: functional, cell-based
Ehrlich [6] = test: Antitumor activity against mouse EAC cells allografted in mouse assessed as reduction of tumor volume at 25 mg/kg measured up to 14 days; type: functional, organism-based
Mus musculus [7] = test: Toxicity in mouse EAC allografted mouse assessed as effect on organs function at 25 mg/kg; type: organism-based; conditions: in vivo
[8] = Antiproliferative activity against human HEK293T cells after 48 hrs by MTT assay; type: cell-based; conditions: HEK-293T
Mus musculus [9] = test: Toxicity in mouse EAC allografted mouse assessed as effect on morphology and cellular construction of organs at 25 mg/kg; type: organism-based; conditions: in vivo

| SMILES | IC50 [1] [µM] | IC50 (REH [2]) [µM] | further results |
| --- | --- | --- | --- |
| COc1cccc(N2C(=O)CSC2c2ccc(F)cc2)c1 (configuration not stated) | 49.8 | > 100 | – |
| COc1ccc(N2C(=O)CSC2c2ccccc2[N+](=O)[O-])cc1 (configuration not stated) | 93.4 | > 100 | – |
| O=C1CSC2(CCCCC2)N1c1ccc(OC(F)F)cc1 | > 100 | 41.4 | – |
| CN(C)c1ccc(C2SCC(=O)N2c2ccc(Br)cc2)cc1 (configuration not stated) | 13.2 | 11.9 | Activity (REH [3]): Dose-dependent effect; Activity (Ehrlich [4]): Active; Activity (REH [5]): Dose-dependent effect; Activity (Ehrlich [6]): Active; Activity (Mus musculus [7]): Non-toxic; IC50 [8]: > 80 µM; Activity (Mus musculus [9]): Non-toxic |
| O=C1CSC2(CCCC2)N1c1ncccn1 | > 100 | > 100 | – |
| Cc1ccccc1N1C(=O)CSC1c1ccc(C(F)(F)F)cc1 (configuration not stated) | 42.6 | 29.6 | – |
| CC(C)(C)OC(=O)N1CCC(C2SCC(=O)N2c2ccc(N3CCN(C(=O)OC(C)(C)C)CC3)cn2)CC1 (configuration not stated) | 82.9 | > 100 | – |
| COc1ccc(N2C(=O)CSC2c2cccnc2)cc1OC (configuration not stated) | > 100 | > 100 | – |
| COc1ccc(N2C(=O)CSC2c2ccc(O)cc2)cc1OC (configuration not stated) | > 100 | 69.4 | – |
| CC1(c2ccccc2)SCC(=O)N1c1cc(Cl)cc(Cl)c1 (configuration not stated) | > 100 | > 100 | – |
